Tests used:
Leishmania tarentolae = test: Potency against L. tarentolae; type: cell-based
Description: The potency of 8 against the nonpathogenic Leishmania spp. […] Apo (3.3 Å) and 8-liganded (2.8 Å) (Fig. 5A) L. tarentolae 20S proteasome structures were obtained using single-particle cryo-EM (SI Appendix, Figs. S11–S15 and Table S9).

[1] = system: L. donovani axenic amastigotes; test: L. donovani axenic amastigote drug sensitivity; type: cell-based; conditions: Leishmania donovani, concentration stated as 1X IC50, read-out: whole cell IC50
Procedure: T. cruzi4, Leishmania donovani axenic amastigote, cidal axenic amastigote and intra-macrophage drug sensitivity assays were conducted as previously described5,6.
The rate of kill of compound 8 was determined in axenic amastigotes using the previously described cidal axenic assay5, with one minor modification. Instead of a single readout at 72 h, multiple identical plates were used and read at different time points (24, 48, 72 h). Rate of kill curves showing the luminescence signal at each time point for each concentration were plotted.
5. Intrinsic clearance (CLint) […]
XLfit (idbs, UK) was used to calculate the exponential decay and consequently the rate constant (k) from the ratio of peak area of test compound to internal standard at each time-point. The rate of intrinsic clearance (CLint) of each test compound was then calculated using the following calculation: […]
Compounds were dispensed into black 384-well assay plates (Greiner) by acoustic dispensing (LabCyte ECHO). […] Three proteasome activities were measured using a commercially available indirect enzyme-based luminescent assay kit (Promega) with Suc-LLVY-aminoluciferin, Z-LRR-aminoluciferin and Z-nLPnLD-aminoluciferin used as substrates for chymotrypsin-like, trypsin-like and caspase-like activities, respectively. […]

[2] = target: chymotrypsin-like activity of the L. donovani proteasome (Leishmania donovani, UniProt A0A3S7XA80+A0ACM8QMP6, G197C/T30A); test: biochemical
Chain of chymotrypsin-like activity of the L. donovani proteasome (Leishmania donovani, UniProt A0A3S7XA80+A0ACM8QMP6, G197C/T30A) (A0ACM8QMP6 entry or part of it, stated change not applied): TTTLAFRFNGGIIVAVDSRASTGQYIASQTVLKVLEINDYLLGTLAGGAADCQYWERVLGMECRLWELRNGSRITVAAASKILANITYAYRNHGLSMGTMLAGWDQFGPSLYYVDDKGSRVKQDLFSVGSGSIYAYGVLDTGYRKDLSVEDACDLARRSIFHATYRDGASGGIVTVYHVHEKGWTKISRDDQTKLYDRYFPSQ
Chain of chymotrypsin-like activity of the L. donovani proteasome (Leishmania donovani, UniProt A0A3S7XA80+A0ACM8QMP6, G197C/T30A) (A0A3S7XA80 whole entry, stated change not applied): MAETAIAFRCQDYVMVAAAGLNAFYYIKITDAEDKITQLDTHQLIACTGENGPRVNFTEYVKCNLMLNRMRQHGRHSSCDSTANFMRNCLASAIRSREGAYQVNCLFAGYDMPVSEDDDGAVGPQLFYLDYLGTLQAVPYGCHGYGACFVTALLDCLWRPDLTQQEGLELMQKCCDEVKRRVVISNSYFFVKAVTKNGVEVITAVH
Procedure: (§1) An in vitro assay was developed that enabled the chymotrypsin-like activity and additional proteolytic activities associated with the proteasome to be directly monitored within proteasome-enriched parasite cell lysates. Likewise, human proteasome from two sources (i.e., commercially pure 26S and enriched proteasome fractions from THP-1 lysates) was tested using the same biochemical assays.
(§2) Proteasome enrichment by ultracentrifugation
(§3) The protocol described by Kisselev et al.34 was adapted to enrich the proteasomes present in L. donovani and THP1 crude extracts. L. donovani or THP1 cells were resuspended in sucrose buffer (50 mM Tris buffer pH 7.5, 5 mM Magnesium chloride, 1 mM EDTA, 50 mM NaCl, 250 mM sucrose, 2 mM ATP, 1 mM DTT) and lysed by nitrogen cavitation for 15 min (110 bars of 1500 psi). Lysates were centrifuged at 20,000g for 30 min at 4 °C and supernatants containing soluble protein were subjected to an ultracentrifugation step at 300,000g for 2h at 4 °C. The resulting proteasome-containing pellets were resuspended in sucrose buffer and left on ice for 30 min to complete solubilization. Samples were centrifuged for 10 min at 20,000 g to remove insoluble material. Proteins contained in supernatant (proteasome enriched fraction) were measured by Bradford.
Proteasome activity assays
(§4) Compounds were dispensed into black 384-well assay plates (Greiner) by acoustic dispensing (LabCyte ECHO). For potency determinations, eleven-point, one in three dilution curves were generated, with a top concentration of 100 µM. Three proteasome activities were measured using a commercially available indirect enzyme-based luminescent assay kit (Promega) with Suc-LLVY-aminoluciferin, Z-LRR-aminoluciferin and Z-nLPnLD-aminoluciferin used as substrates for chymotrypsin-like, trypsin-like and caspase-like activities, respectively. In addition to proteasome samples: L. donovani and THP1-enriched proteasomes, commercially available human purified 26S proteasome (Boston Biochem) was also assessed.

[3] = target: chymotrypsin-like activity of the L. donovani proteasome (Leishmania donovani, UniProt A0A3S7XA80+A0ACM8QMP6); test: biochemical
Chain of chymotrypsin-like activity of the L. donovani proteasome (Leishmania donovani, UniProt A0A3S7XA80+A0ACM8QMP6) (A0ACM8QMP6 100-302): as the sequence (A0ACM8QMP6 entry or part of it, stated change not applied) above
Chain of chymotrypsin-like activity of the L. donovani proteasome (Leishmania donovani, UniProt A0A3S7XA80+A0ACM8QMP6) (A0A3S7XA80 1-206): as the sequence (A0A3S7XA80 whole entry, stated change not applied) above
Procedure: as §1, §2, §3
Proteasome activity assays
as §4

Which EC50 (Leishmania tarentolae) does the source give for `O=C(Nc1ccc(F)c(-c2ccn3c(N4CCOCC4)cnc3n2)c1)N1CCCC1` [Compound 8] here?
Its EC50 is 0.04 µM.

And the IC50 [1]?
The IC50 was 0.3 µM.

And the IC50 [2]?
The IC50 was greater than 100 µM.

And the IC50 [3]?
Its IC50 is 0.16 ± 0.01 µM.
